Experimental findings from patent US9931347B2, “Pharmaceutical compound” (IOmet Pharma Ltd., priority 2013, dated 2018) are described below.

In experiment [1] the target is T1, TDO (A172 human glioblastoma cells) (Homo sapiens, UniProt P48775).
T1 construct: This assay utilised cancer cells which expressed either TDO or IDO; endogenous in cells; host or cells: A172 human glioblastoma cells
Put plainly: A172 Kynurenine cell based assay. Particulars: 500 μM L-tryptophan, 48 hours, kynurenine by Erhlich's reagent. The protocol: (§1) Exemplary compounds of the invention were prepared, and tested to determine their effect as TDO and/or IDO inhibitors. Two different assays were employed: 1. a cell-based assay for detecting the effect of test compounds on kynurenine production in two different cancer cell types. This assay utilised cancer cells which expressed either TDO or IDO and as such was used as a means of testing compound activity at these two enzymes in a cell-based context. 2. a TDO and IDO biochemical coupled assay which utilised recombinantly produced and purified TDO and IDO enzymes in combination with the enzyme formamidase. This coupled enzyme system allowed conversion of N-formylkynurenine produced by TDO or IDO activity to kynurenine which was then quantified by fluorescence following addition of Erhlich's Reagent The protocols for these are set out below.
A172 (human glioblastoma) and SKOV3 (human ovarian adenocarcinoma) cells were seeded in a 96 well plate at 30,000 or 40,000 cells per well respectively in phenol red-free RPMI supplemented with 10% FCS, 2 mM L-glutamine and 500 μM L-tryptophan. IDO expression was induced in the SKOV3 cells by the addition of 500 ng/ml IFN-γ. Cells were incubated at 37° C. with or without the addition of test compound. After 48 hours, the cells were removed by centrifugation and Erhlich's reagent was added to the supernatant. The Erhlich's reagent was incubated for 5 minutes before the absorbance was read at 490 nm.

Experiment [2] concerns the target T2, IDO (SKOV3 human ovarian adenocarcinoma cells, IFN-γ induced) (Homo sapiens, UniProt P14902).
T2 construct: IDO expression was induced in the SKOV3 cells by the addition of 500 ng/ml IFN-γ; endogenous in cells; host or cells: SKOV3 human ovarian adenocarcinoma cells, induced with IFN-γ
Put plainly: SKOV3 Kynurenine cell based assay. The following applies: IDO induced by 500 ng/ml IFN-γ, 500 μM L-tryptophan, 48 hours. The protocol: as §1
A172 (human glioblastoma) and SKOV3 (human ovarian adenocarcinoma) cells were seeded in a 96 well plate at 30,000 or 40,000 cells per well respectively in phenol red-free RPMI supplemented with 10% FCS, 2 mM L-glutamine and 500 μM L-tryptophan. IDO expression was induced in the SKOV3 cells by the addition of 500 ng/ml IFN-γ. Cells were incubated at 37° C. with or without the addition of test compound. After 48 hours, the cells were removed by centrifugation and Erhlich's reagent was added to the supernatant.

T2 sequence (P14902 whole entry): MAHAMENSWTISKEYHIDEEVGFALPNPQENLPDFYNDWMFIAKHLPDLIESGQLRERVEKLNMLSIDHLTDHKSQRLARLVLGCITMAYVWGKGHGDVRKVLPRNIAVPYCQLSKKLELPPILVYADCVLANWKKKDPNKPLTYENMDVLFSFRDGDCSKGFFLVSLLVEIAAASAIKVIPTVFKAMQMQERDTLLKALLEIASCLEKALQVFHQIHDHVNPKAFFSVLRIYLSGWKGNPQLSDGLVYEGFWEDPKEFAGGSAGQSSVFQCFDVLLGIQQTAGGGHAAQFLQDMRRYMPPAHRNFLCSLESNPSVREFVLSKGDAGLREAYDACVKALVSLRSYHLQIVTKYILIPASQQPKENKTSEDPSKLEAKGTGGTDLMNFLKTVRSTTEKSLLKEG
T1 sequence (P48775 whole entry): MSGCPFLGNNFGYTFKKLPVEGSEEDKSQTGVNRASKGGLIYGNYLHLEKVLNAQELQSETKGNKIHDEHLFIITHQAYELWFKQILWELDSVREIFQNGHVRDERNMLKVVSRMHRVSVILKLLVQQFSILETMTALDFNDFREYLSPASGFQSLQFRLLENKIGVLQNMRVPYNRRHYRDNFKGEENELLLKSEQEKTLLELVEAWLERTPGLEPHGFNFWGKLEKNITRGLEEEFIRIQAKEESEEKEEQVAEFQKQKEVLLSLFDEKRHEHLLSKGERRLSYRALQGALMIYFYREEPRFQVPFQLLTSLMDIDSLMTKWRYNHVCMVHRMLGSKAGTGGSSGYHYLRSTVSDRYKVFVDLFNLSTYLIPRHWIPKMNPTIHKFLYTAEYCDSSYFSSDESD

As for `O=C(C1CC(=O)N(C2CCCC2)C1)N1CCC(c2c[nH]c3cc(F)ccc23)CC1` (stereo not drawn) [Compound 276], in experiment [1], the “A172 Kynurenine cell based assay pIC50” value was “+ (+ = pIC50 4.00-4.99)”. Also, the “SKOV3 Kynurenine cell based assay pIC50” value in experiment [2] is recorded as “+ (+ = pIC50 4.00-4.99)”.
Take `CS(=O)(=O)N1CCC(C2C(=O)Nc3ccc(C(F)(F)F)cc32)CC1` (stereo not drawn) [Compound 310]: in experiment [2], the “SKOV3 Kynurenine cell based assay pIC50” value was “+ (+ = pIC50 4.00-4.99)”.
Regarding `CCN(CC)S(=O)(=O)N1CCC(c2c[nH]c3ccccc23)CC1` [Compound 217], in experiment [1], the “A172 Kynurenine cell based assay pIC50” value was “+ (+ = pIC50 4.00-4.99)”. In experiment [2], the “SKOV3 Kynurenine cell based assay pIC50” value was “+ (+ = pIC50 4.00-4.99)”.
As for `CC(=O)N1CCC(c2c[nH]c3cc(F)ccc23)CC1` [Compound 200], the “A172 Kynurenine cell based assay pIC50” value in experiment [1] is given as “++ (++ = pIC50 5.00-5.99)”.
On the same count and under the same terms, for `CC(=O)N1CCN(c2c[nH]c3ccccc23)CC1C#N` (stereo not drawn) [Compound 313] the value was “+ (+ = pIC50 4.00-4.99)”.
The same measure, in the same setting: to `CC(C)CN1CC(C(=O)N2CCC(c3c[nH]c4cc(F)ccc34)CC2)CC1=O` (stereo not drawn) [Compound 275] belongs “+ (+ = pIC50 4.00-4.99)”.
`CS(=O)(=O)N1CCC(c2c[nH]c3cc(OCc4ccccc4)ccc23)CC1` [Compound 222]: in experiment [2], the “SKOV3 Kynurenine cell based assay pIC50” value was “+ (+ = pIC50 4.00-4.99)”.
Consider `O=C(C1CCOC1)N1CCC(c2c[nH]c3cc(F)ccc23)CC1` (stereo not drawn) [Compound 262], for which, in experiment [1], the “A172 Kynurenine cell based assay pIC50” value is reported as “+ (+ = pIC50 4.00-4.99)”.
Regarding `CS(=O)(=O)N1CCC(c2c[nH]c3cc(F)c(Cl)cc23)CC1` [Compound 253], in experiment [1], the “A172 Kynurenine cell based assay pIC50” value was “+ (+ = pIC50 4.00-4.99)”. Further, the “SKOV3 Kynurenine cell based assay pIC50” value in experiment [2] is recorded as “+ (+ = pIC50 4.00-4.99)”.
With `CN(C)S(=O)(=O)N1CCN(c2c[nH]c3ccccc23)CC1` [Compound 297], the “A172 Kynurenine cell based assay pIC50” value in experiment [1] is “++ (++ = pIC50 5.00-5.99)”.
As for `CC(C)S(=O)(=O)N1CCC(c2c[nH]c3cc(F)ccc23)CC1` [Compound 289], the “A172 Kynurenine cell based assay pIC50” value in experiment [1] was “++ (++ = pIC50 5.00-5.99)”. The “SKOV3 Kynurenine cell based assay pIC50” value in experiment [2] is “+ (+ = pIC50 4.00-4.99)”.
For `CS(=O)(=O)N1CCC(c2c[nH]c3cc(F)cc(F)c23)CC1` [Compound 216], the “A172 Kynurenine cell based assay pIC50” value in experiment [1] is “+ (+ = pIC50 4.00-4.99)”.
Same read-out and setting: for `COCCNS(=O)(=O)N1CCC(c2c[nH]c3ccccc23)CC1` [Compound 219] the value was “+ (+ = pIC50 4.00-4.99)”; for `O=C(NCCO)N1CCC(c2c[nH]c3ccccc23)CC1` [Compound 226], “+ (+ = pIC50 4.00-4.99)”; for `COCCNC(=O)N1CCC(c2c[nH]c3ccccc23)CC1` [Compound 212], “+ (+ = pIC50 4.00-4.99)”.
Consider `O=C(c1cocn1)N1CCC(c2c[nH]c3cc(F)ccc23)CC1` [Compound 274], for which, in experiment [1], the “A172 Kynurenine cell based assay pIC50” value is recorded as “+ (+ = pIC50 4.00-4.99)”.
In the case of `CS(=O)(=O)N1CCCN(c2c[nH]c3ccccc23)CC1` [Compound 302], the “SKOV3 Kynurenine cell based assay pIC50” value in experiment [2] is “+ (+ = pIC50 4.00-4.99)”.
With `O=C1NCC2CN(c3c[nH]c4ccccc34)CCN12` (stereo not drawn) [Compound 307], the “A172 Kynurenine cell based assay pIC50” value in experiment [1] is “++ (++ = pIC50 5.00-5.99)”.
On the same count and under the same terms, for `c1ccc2c(N3CCn4ncnc4C3)c[nH]c2c1` [Compound 315] the value was “+ (+ = pIC50 4.00-4.99)”.
Regarding `CCN(CC)C(=O)N1CCC(c2c[nH]c3ccccc23)CC1` [Compound 211], the “SKOV3 Kynurenine cell based assay pIC50” value in experiment [2] is “+ (+ = pIC50 4.00-4.99)”.
For the compound `CCNS(=O)(=O)N1CCC(c2c[nH]c3ccccc23)CC1` [Compound 258], the “A172 Kynurenine cell based assay pIC50” value in experiment [1] is listed as “+ (+ = pIC50 4.00-4.99)”.
In the case of `CC(C)C(=O)N1CCC(c2c[nH]c3cc(F)ccc23)CC1` [Compound 266], in experiment [1], the “A172 Kynurenine cell based assay pIC50” value was “+ (+ = pIC50 4.00-4.99)”.
On the same count and under the same terms, to `O=C(c1ccno1)N1CCC(c2c[nH]c3cc(F)ccc23)CC1` [Compound 271] belongs “+ (+ = pIC50 4.00-4.99)”; to `Cn1cnc(C(=O)N2CCC(c3c[nH]c4cc(F)ccc34)CC2)c1` [Compound 272], “+ (+ = pIC50 4.00-4.99)”.
In the case of `CC(=O)N1CC=C(c2c[nH]c3cc(C#N)ccc23)CC1` [Compound 214], the “SKOV3 Kynurenine cell based assay pIC50” value in experiment [2] is reported as “+ (+ = pIC50 4.00-4.99)”.
For the compound `Fc1ccc2c(C3CCN(c4ccccc4)CC3)c[nH]c2c1` [Compound 303], the “A172 Kynurenine cell based assay pIC50” value in experiment [1] is “++ (++ = pIC50 5.00-5.99)”.
The same measure, in the same setting: to `CS(=O)(=O)N1CCN(c2c[nH]c3ccccc23)CC1CN` (stereo not drawn) [Compound 318] belongs “++ (++ = pIC50 5.00-5.99)”.
On the same count and under the same terms, to `CS(=O)(=O)N1CCN(c2c[nH]c3ccccc23)CC1C#N` (stereo not drawn) [Compound 314] belongs “++ (++ = pIC50 5.00-5.99)”.
Regarding `CC(=O)N1CCC(c2c(C)[nH]c3ccccc23)CC1` [Compound 195], the “SKOV3 Kynurenine cell based assay pIC50” value in experiment [2] is “+ (+ = pIC50 4.00-4.99)”.
Consider `CS(=O)(=O)N1CCC(C2C(=O)Nc3ccc(C#N)cc32)CC1` (stereo not drawn) [Compound 312], for which, in experiment [2], the “SKOV3 Kynurenine cell based assay pIC50” value is recorded as “+ (+ = pIC50 4.00-4.99)”.
In the case of `CS(=O)(=O)N1CCC(c2c[nH]c3c(F)cccc23)CC1` [Compound 194], the “A172 Kynurenine cell based assay pIC50” value in experiment [1] is given as “+ (+ = pIC50 4.00-4.99)”.
Same read-out and setting: for `CC(=O)N1CCC(c2c[nH]c3cc(C#N)ccc23)CC1` [Compound 237] the value was “+ (+ = pIC50 4.00-4.99)”.
With `CS(=O)(=O)N1CCC(=C2C(=O)Nc3ccc(Br)cc32)CC1` [Compound 305], the “SKOV3 Kynurenine cell based assay pIC50” value in experiment [2] is given as “+ (+ = pIC50 4.00-4.99)”.
Regarding `CN(C)CCNC(=O)N1CCC(c2c[nH]c3ccccc23)CC1` [Compound 246], the “A172 Kynurenine cell based assay pIC50” value in experiment [1] is given as “+ (+ = pIC50 4.00-4.99)”.
On the same count and under the same terms, for `CS(=O)(=O)N1CC=C(c2c[nH]c3cc(C(F)(F)F)ccc23)CC1` [Compound 224] the value was “+ (+ = pIC50 4.00-4.99)”.
The same measure, in the same setting: to `O=C(c1cnccn1)N1CCC(c2c[nH]c3cc(F)ccc23)CC1` [Compound 261] belongs “+ (+ = pIC50 4.00-4.99)”; to `Fc1ccc2c(C3CCN(c4cccnc4)CC3)c[nH]c2c1` [Compound 309], “++ (++ = pIC50 5.00-5.99)”.
Still for that read-out and setting: to `O=S(=O)(N1CCOCC1)N1CCC(c2c[nH]c3ccccc23)CC1` [Compound 220] belongs “+ (+ = pIC50 4.00-4.99)”.
In the case of `O=S(=O)(CC(F)(F)F)N1CCC(c2c[nH]c3cc(F)ccc23)CC1` [Compound 287], the “A172 Kynurenine cell based assay pIC50” value in experiment [1] is given as “++ (++ = pIC50 5.00-5.99)”.
Regarding `Cc1ccc2c(C3=CCN(S(C)(=O)=O)CC3)c[nH]c2c1` [Compound 206], in experiment [1], the “A172 Kynurenine cell based assay pIC50” value is given as “++ (++ = pIC50 5.00-5.99)”.
On the same count and under the same terms, for `CS(=O)(=O)N1CC=C(c2c[nH]c3ccc(C#N)cc23)CC1` [Compound 230] the value was “++ (++ = pIC50 5.00-5.99)”; for `O=S(=O)(c1ccccc1)N1CCC(c2c[nH]c3cc(F)ccc23)CC1` [Compound 300], “++ (++ = pIC50 5.00-5.99)”.
For the compound `CS(=O)(=O)N1CCC(C2C(=O)Nc3ccc(Br)cc32)CC1` (stereo not drawn) [Compound 306], the “SKOV3 Kynurenine cell based assay pIC50” value in experiment [2] is recorded as “++ (++ = pIC50 5.00-5.99)”.
The same measure, in the same setting: for `CC(=O)N1CCC(c2c[nH]c3cc(Cl)c(F)cc23)CC1` [Compound 242] the value was “+ (+ = pIC50 4.00-4.99)”.
Consider `CC(=O)N1CC=C(c2c[nH]c3cc(F)cc(F)c23)CC1` [Compound 201], for which the “A172 Kynurenine cell based assay pIC50” value in experiment [1] is reported as “++ (++ = pIC50 5.00-5.99)”.
Same read-out and setting: for `CCN1CC(C(=O)N2CCC(c3c[nH]c4cc(F)ccc34)CC2)CC1=O` (stereo not drawn) [Compound 268] the value was “+ (+ = pIC50 4.00-4.99)”.
On to `CS(=O)(=O)N1CCC(C2C(=O)Nc3ccc(Cl)cc32)CC1` (stereo not drawn) [Compound 294], for which, in experiment [2], the “SKOV3 Kynurenine cell based assay pIC50” value is recorded as “++ (++ = pIC50 5.00-5.99)”.
Regarding `CC(=O)N1CCC(c2c[nH]c3cc(F)cc(F)c23)CC1` [Compound 202], in experiment [1], the “A172 Kynurenine cell based assay pIC50” value was “+ (+ = pIC50 4.00-4.99)”.
Still for that read-out and setting: for `COCC(=O)N1CCC(c2c[nH]c3cc(F)ccc23)CC1` [Compound 264] the value was “++ (++ = pIC50 5.00-5.99)”; for `Fc1ccc2c(C3CCN(c4nnn[nH]4)CC3)c[nH]c2c1` [Compound 290], “+ (+ = pIC50 4.00-4.99)”; for `CC(C)C(=O)N1CCC(C(=O)N2CCC(c3c[nH]c4cc(F)ccc34)CC2)CC1` [Compound 267], “+ (+ = pIC50 4.00-4.99)”.
Consider `CS(=O)(=O)N1CCC(c2c[nH]c3c(Cl)cccc23)CC1` [Compound 235], for which the “SKOV3 Kynurenine cell based assay pIC50” value in experiment [2] is on record as “+ (+ = pIC50 4.00-4.99)”.
As for `CC(=O)N1CCN(c2c[nH]c3ccccc23)CC1C` (stereo not drawn) [Compound 298], the “A172 Kynurenine cell based assay pIC50” value in experiment [1] is given as “++ (++ = pIC50 5.00-5.99)”.
